This experiment has as its target T1, MsGOBP2 (Mythimna separata, UniProt A0A5H2NB15).
T1 construct: recombinant, pColdII vector, E. coli TransB, Ni-NTA purified, expression tag removed with enterokinase
T1 sequence (A0A5H2NB15 22-162): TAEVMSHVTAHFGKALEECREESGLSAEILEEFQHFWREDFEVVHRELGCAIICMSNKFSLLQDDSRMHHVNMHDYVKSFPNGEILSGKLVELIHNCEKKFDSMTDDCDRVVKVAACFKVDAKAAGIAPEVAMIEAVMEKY
Briefly: direct fluorescence titration with the probe. The format is binding. Conditions: 2 μM protein; protein dialyzed in 10 mM PBS pH 7.4; excitation 337 nm.

SMILES strings stand for the structures.

Regarding `c1ccc(Nc2cccc3ccccc23)cc1` [1-NPN], the K1-NPN entry is “yielding the dissociation constants between the two proteins and 1-NPN (K1-NPN)”.
